The values that follow come from US12195804B2, “Treatment of squamous cell carcinoma” (Board of Regents, The University of Texas System, priority 2018, dated 2025).

SMILES strings stand for the structures.

Test [1] deals with HN31 and UMSCC22A subcutaneous xenografts. As to the kind of experiment: Subcutaneous xenograft models of NOTCH1MUT HNSCC. Format: in vivo, athymic nude mice. The following applies: 1 mg/kg oral gavage daily 28 days. The protocol:
FIGS. 8A-8D: PI3K/mTOR pathway inhibitors cause apoptosis and reduce tumor size in NOTCH1^MUT head and neck squamous cell carcinoma (HNSCC) in vivo. FIGS. 8A and 8B. The NOTCH1^MUT cell lines HN31 (FIG. 8A) and UMSCC22A (UM22A; FIG. 8B) were injected subcutaneously (SQ) into athymic nude mice. After tumors reached 150 mm^3, the mice were randomized to receive either vehicle control (2-hydroxypropyl-β-cyclodextrin) or 1 mg/kg GSK2126458 (GSK212) by oral gavage daily for 28 days. Tumor sizes were measured and tumor volumes were calculated at the indicated times, and the percent change in tumor volume at the end of therapy was calculated using the formula (final tumor volume−initial tumor volume/initial tumor volume)×100%. The percentages of TUNEL-positive cells were calculated from image quantification at 40× magnification. FIGS. 8C and 8D. HN31 (FIG. 8C) and UM22A (FIG. 8D) were implanted orthotopically (OT) into the anterior tongues of athymic nude mice. […] Tumor sizes were measured, and tumor volumes and percent changes in tumor volumes were calculated as above. […] The percentages of TUNEL-positive cells were calculated as described above. Data are means±standard deviations from 5 mice per group; p values were calculated using an unpaired t-test with the Welch correction. […]

A further test deals with UMSCC49 cells. The test can be described thus: CellTiter-Glo viability, UMSCC49 parental and NOTCH1 KO. The format is cell-based, human. The settings on record: 72 hours. The protocol:
FIGS. 9A-9D: NOTCH1 knockout (KO) sensitizes two NOTCH1^WT head and neck squamous cell carcinoma (HNSCC) cell lines to PI3K/mTOR pathway inhibition in vitro. Two NOTCH1^WT HNSCC cell lines (PJ34 and UMSCC49 [UM49]), parental cell lines, and NOTCH1 KO cell lines were treated with PI3K/mTOR pathway inhibitors. FIG. 9A. The CellTiter-Glo assay was used to assess the viability of cells treated for 72 hours with the indicated concentrations of GSK2126458 (GSK212). FIG. 9B. Western blot analysis of apoptosis markers, NOTCH1, and NOTCH intracellular domain (NICD) was performed after treatment with the indicated concentrations of GSK212 for 48 hours. FIG. 9C. Apoptosis in cells treated with 50 nM GSK212 or 200 nM BEZ235 for 48 hours was measured using an Annexin V/propidium iodide assay. Values are the means±standard deviations of three independent experiments. *p<0.05, unpaired two-tailed Student t-test. FIG. 9D. […] Colony areas as percentages of the control were measured using ImageJ. […]
Cell viability assay. […] Inhibitory concentration (ICs) and area under the curve (AUC) values were calculated using the drexplorer R package with a best-fit dose-response model (Zumsteg et al., 2016). The combination indices were calculated using the Chou-Talalay method (Cal et al., 2017) in CalcuSyn (Biosoft, Cambridge, UK). […]
(ATP-based viability assays read luminescence as a measure of living cells.)

Usually IC70 stands for the concentration needed for an effect of 70%.

As for `COc1ncc(-c2ccc3nccc(-c4ccnnc4)c3c2)cc1NS(=O)(=O)c1ccc(F)cc1F` [GSK2126458], in test [1], the “apoptosis in tumors (TUNEL staining)” value is reported as “significant apoptosis” and the tumor volume result was “regressed”. Further, the IC70 in the test on UMSCC49 cells (UMSCC49 NOTCH1 KO) is 360 nM. For the same compound, the IC70 in the test on UMSCC49 cells (UMSCC49 parental) is 1480 nM.
